Results on 31 compounds are retold here after US20230078764A1 (Yumanity Therapeutics, Inc., priority 2019, published 2023).

One experiment addresses T1, human SCD5 (Homo sapiens, UniProt Q86SK9).
T1 construct: expressed in transfected cells; host or cells: yeast strain with OLE1 deleted, plasmid-borne human SCD5 (selected in SD-Ura)
T1 sequence (Q86SK9 1-330): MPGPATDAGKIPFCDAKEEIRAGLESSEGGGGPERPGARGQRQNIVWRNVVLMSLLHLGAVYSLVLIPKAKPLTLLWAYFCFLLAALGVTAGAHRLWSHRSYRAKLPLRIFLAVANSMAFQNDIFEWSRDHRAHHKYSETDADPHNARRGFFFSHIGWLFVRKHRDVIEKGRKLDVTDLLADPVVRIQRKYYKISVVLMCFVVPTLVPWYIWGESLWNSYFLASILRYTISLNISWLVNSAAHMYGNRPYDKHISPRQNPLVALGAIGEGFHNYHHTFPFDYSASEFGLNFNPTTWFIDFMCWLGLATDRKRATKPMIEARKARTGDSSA
The experiment in a line: Growth inhibition of yeast strain expressing human SCD5 as sole desaturase (OLE1 deleted), OD600 readout. The class given is cell-based.

The target of the next experiment is T2, human SCD1 (Homo sapiens, UniProt O00767).
T2 construct: expressed in transfected cells; host or cells: yeast strain with OLE1 deleted, plasmid-borne human SCD1 (selected in SD-Ura)
T2 sequence (O00767 1-359): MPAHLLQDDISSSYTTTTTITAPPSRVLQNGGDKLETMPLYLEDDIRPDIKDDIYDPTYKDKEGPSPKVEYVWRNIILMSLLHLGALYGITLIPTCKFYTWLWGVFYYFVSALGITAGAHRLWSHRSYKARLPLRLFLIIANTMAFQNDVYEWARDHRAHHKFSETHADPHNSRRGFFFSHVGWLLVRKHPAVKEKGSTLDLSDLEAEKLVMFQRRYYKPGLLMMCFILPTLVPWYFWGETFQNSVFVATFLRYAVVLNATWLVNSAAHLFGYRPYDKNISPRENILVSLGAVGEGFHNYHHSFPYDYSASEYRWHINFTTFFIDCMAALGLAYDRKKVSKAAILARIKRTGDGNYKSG
The experiment in a line: Growth inhibition of yeast strain expressing human SCD1 as sole desaturase (OLE1 deleted), OD600 readout. The experiment is classed as cell-based.

[1] abbreviates: yeast strain expressing human SCD5 as sole desaturase, growth (OD600) after 40 h at 30° C., read-out: SCD5 IC50.
Setting [2] is: yeast strain expressing human SCD1 as sole desaturase, growth (OD600) after 40 h at 30° C., read-out: SCD1 IC50.

Read-outs that look alike come from different tables or passages of the source. Bounds are passed on as bounds.

Broadly, the IC50 is the concentration that gives 50% inhibition. For `CC1CC(C(=O)Nc2ccc(Cc3cccc(F)c3)cn2)=NN(C)C1=O` (centres unmarked) [Compound 118, N-(5-(3-fluorobenzyl)pyridin-2-yl)-1,5-dimethyl-6-oxo-1,4,5,6-tetrahydropyridazine-3-carboxamide], the results for the IC50 at human SCD5 (setting [1]) and on human SCD1 (setting [2]) were 440 nM and over 45000 nM, respectively.

For the compound `O=C(Nc1ccc(Cc2cccc(F)c2)cn1)c1ccc(CO)nc1` [Compound 119, N-(5-(3-fluorobenzyl)pyridin-2-yl)-6-(hydroxymethyl)nicotinamide], the IC50 at human SCD5 (setting [1]) and at human SCD1 (setting [2]) was 10 nM throughout.

For `N#Cc1ccc(C(=O)Nc2ccc(Cc3cccc(Cl)c3)cn2)cn1` [Compound 120, N-(5-(3-chlorobenzyl)pyridin-2-yl)-6-cyanonicotinamide], the values for the half-inhibitory concentration (IC50) on human SCD5 (setting [1]) and on human SCD1 (setting [2]) were 30 nM and over 45000 nM, respectively.

For the compound `NCc1ccc(C(=O)Nc2ccc(Cc3cccc(Cl)c3)cn2)cn1` [Compound 121, 6-(aminomethyl)-N-(5-(3-chlorobenzyl)pyridin-2-yl)nicotinamide 2,2,2-trifluoroacetate], the IC50 on human SCD5 (setting [1]) and at human SCD1 (setting [2]) was 20 nM in each case.

`O=C(Nc1ccc(Cc2cccc(Cl)c2)cn1)c1ccc(CO)nn1` [Compound 122, N-(5-(3-chlorobenzyl)pyridin-2-yl)-6-(hydroxymethyl)pyridazine-3-carboxamide]: the IC50 at human SCD5 (setting [1]) and at human SCD1 (setting [2]) was 10 nM each time.

`Cc1cc(NC(=O)C2=NN(C)C(=O)CC2)ncc1Cc1cccc(Cl)c1` [Compound 123, N-(5-(3-chlorobenzyl)-4-methylpyridin-2-yl)-1-methyl-6-oxo-1,4,5,6-tetrahydropyridazine-3-carboxamide]: the 50% inhibitory concentration (IC50) at human SCD5 (setting [1]) was 8940 nM; on human SCD1 (setting [2]) it was over 45000 nM.

In the case of `CN1N=C(C(=O)Nc2ncc(Cc3cccc(Cl)c3)cc2F)CCC1=O` [Compound 124, N-(5-(3-chlorobenzyl)-3-fluoropyridin-2-yl)-1-methyl-6-oxo-1,4,5,6-tetrahydropyridazine-3-carboxamide], the IC50 is 10000 nM on human SCD5 (setting [1]) and over 45000 nM on human SCD1 (setting [2]).

With `O=C(Nc1ccc(CO)nc1)c1ccc(Cc2cccc(F)c2)cn1` [Compound 125, 5-(3-Fluorobenzyl)-N-(6-(hydroxymethyl)pyridin-3-yl)picolinamide], the IC50 at human SCD5 (setting [1]) and on human SCD1 (setting [2]) was 10 nM in each case.

On to `Cc1ccc(NC(=O)c2ccc(Cc3cccc(F)c3)cn2)nn1` [Compound 126, 5-(3-Fluorobenzyl)-N-(6-methylpyridazin-3-yl)picolinamide], for which the figures for the half-inhibitory concentration (IC50) at human SCD5 (setting [1]) and at human SCD1 (setting [2]) were 230 nM and 830 nM, respectively.

`COc1cc(C(=O)Nc2ccc(Cc3cccc(F)c3)cn2)nn(C)c1=O` [Compound 127, N-(5-(3-fluorobenzyl)pyridin-2-yl)-5-methoxy-1-methyl-6-oxo-1,6-dihydropyridazine-3-carboxamide]: the figures for the IC50 on human SCD5 (setting [1]) and on human SCD1 (setting [2]) were 220 nM and 3120 nM, respectively.

`Cn1cc(C(=O)Nc2ccc(Cc3cccc(Cl)c3)cn2)cc(F)c1=O` [Compound 128, N-(5-(3-chlorobenzyl)pyridin-2-yl)-5-fluoro-1-methyl-6-oxo-1,6-dihydropyridine-3-carboxamide]: the half-maximal inhibitory concentration (IC50) was found to be 10 nM at human SCD5 (setting [1]) and 180 nM at human SCD1 (setting [2]).

With `N#Cc1ccc(C(=O)Nc2ccc(Cc3cccc(Cl)c3)cn2)nc1` [Compound 129, N-(5-(3-chlorobenzyl)pyridin-2-yl)-5-cyanopicolinamide], the values for the IC50 on human SCD5 (setting [1]) and at human SCD1 (setting [2]) were 50 nM and over 45000 nM, respectively.

Turning to `N#Cc1ccc(C(=O)Nc2ccc(Cc3ccc(F)c(Cl)c3)cn2)nc1` [Compound 130, N-(5-(3-chloro-4-fluorobenzyl)pyridin-2-yl)-5-cyanopicolinamide], the IC50 was 40 nM on human SCD5 (setting [1]) and over 45000 nM at human SCD1 (setting [2]).

On to `O=C(Nc1ccc(Cc2cccc(Cl)c2)cn1)c1ccc(CO)nc1` [Compound 131, N-(5-(3-chlorobenzyl)pyridin-2-yl)-6-(hydroxymethyl)nicotinamide], for which the IC50 on human SCD5 (setting [1]) and at human SCD1 (setting [2]) was 10 nM each time.

For the compound `O=C(Nc1ccc(CO)nc1)c1ccc(Cc2cccc(Cl)c2)cn1` [Compound 132, 5-(3-Chlorobenzyl)-N-(6-(hydroxymethyl)pyridin-3-yl)picolinamide], the 50% inhibitory concentration (IC50) on human SCD5 (setting [1]) and on human SCD1 (setting [2]) was 10 nM throughout.

Regarding `N#Cc1ccc(C(=O)Nc2ccc(Cc3cccc(F)c3)cn2)cc1` [Compound 133, 4-cyano-N-(5-(3-fluorobenzyl)pyridin-2-yl)benzamide], the half-inhibitory concentration (IC50) at human SCD5 (setting [1]) is 230 nM; on human SCD1 (setting [2]) it was over 45000 nM.

In the case of `Cc1nccc(C(=O)Nc2ccc(Cc3cc(F)cc(C#N)c3)cn2)n1` [Compound 134, N-(5-(3-cyano-5-fluorobenzyl)pyridin-2-yl)-2-methylpyrimidine-4-carboxamide], the IC50 at human SCD5 (setting [1]) came to 10 nM; at human SCD1 (setting [2]), 90 nM.

In the case of `COCc1ccc(C(=O)Nc2ccc(Cc3cccc(Cl)c3)cn2)cn1` [Compound 136, N-(5-(3-chlorobenzyl)pyridin-2-yl)-6-(methoxymethyl)nicotinamide], the half-inhibitory concentration (IC50) on human SCD5 (setting [1]) came to 490 nM; at human SCD1 (setting [2]) it was 1260 nM.

As for `O=C(Nc1ccc(Cc2cccc(Cl)c2)cn1)c1ccc(CO)cn1` [Compound 137, N-(5-(3-chlorobenzyl)pyridin-2-yl)-5-(hydroxymethyl)picolinamide], the IC50 at human SCD5 (SCD5 IC50) and against human SCD1 (SCD1 IC50) was 10 nM in each case.

As for `Cc1cnc(C(=O)Nc2ccc(Cc3ccc(F)c(Cl)c3)cn2)cn1` [Compound 138, N-(5-(3-chloro-4-fluorobenzyl)pyridin-2-yl)-5-methylpyrazine-2-carboxamide], the IC50 on human SCD5 (setting [1]) was 80 nM; at human SCD1 (setting [2]), 550 nM.

`Cc1cnc(C(=O)Nc2ccc(Cc3cccc(F)c3)cn2)nc1` [Compound 139, N-(5-(3-fluorobenzyl)pyridin-2-yl)-5-methylpyrimidine-2-carboxamide]: the IC50 at human SCD5 (setting [1]) was 60 nM; on human SCD1 (setting [2]), 4930 nM.

Turning to `Cn1cccc(C(=O)Nc2ccc(Cc3cccc(F)c3)cn2)c1=O` [Compound 140, N-(5-(3-fluorobenzyl)pyridin-2-yl)-1-methyl-2-oxo-1,2-dihydropyridine-3-carboxamide], the IC50 is 10 nM at human SCD5 (setting [1]) and 290 nM on human SCD1 (setting [2]).

Turning to `Cc1ncc(C(=O)Nc2ccc(Cc3cccc(F)c3)cn2)cn1` [Compound 141, N-(5-(3-fluorobenzyl)pyridin-2-yl)-2-methylpyrimidine-5-carboxamide], the concentration for half-maximal inhibition (IC50) was 160 nM at human SCD5 (setting [1]) and over 45000 nM at human SCD1 (setting [2]).

With `O=C(Nc1ccc(Cc2cccc(F)c2)cn1)c1ccnnc1` [Compound 143, N-(5-(3-fluorobenzyl)pyridin-2-yl)pyridazine-4-carboxamide], the half-maximal inhibitory concentration (IC50) at human SCD5 (setting [1]) was 370 nM; on human SCD1 (setting [2]) it was 510 nM.

On to `Cc1nccc(C(=O)Nc2ccc(Cc3cccc(F)c3)cn2)n1` [Compound 144, N-(5-(3-fluorobenzyl)pyridin-2-yl)-2-methylpyrimidine-4-carboxamide], for which the 50% inhibitory concentration (IC50) at human SCD5 (setting [1]) and on human SCD1 (setting [2]) was 10 nM each time.

For the compound `Cc1ccc(C(=O)Nc2ccc(Cc3cccc(F)c3)cn2)nn1` [Compound 145, N-(5-(3-fluorobenzyl)pyridin-2-yl)-6-methylpyridazine-3-carboxamide], the IC50 was 100 nM on human SCD5 (setting [1]) and 1710 nM on human SCD1 (setting [2]).

Turning to `O=C(Nc1ccc(Cc2cccc(Cl)c2)cn1)c1ccc2nncn2c1` [Compound 146, N-(5-(3-chlorobenzyl)pyridin-2-yl)-[1,2,4]triazolo[4,3-a]pyridine-6-carboxamide], the figures for the half-inhibitory concentration (IC50) on human SCD5 (setting [1]) and on human SCD1 (setting [2]) were 10 nM and 190 nM, respectively.

Regarding `O=C(Nc1ccc(Cc2ccc(F)c(F)c2)cn1)c1ccc2nncn2c1` [Compound 147, N-(5-(3,4-difluorobenzyl)pyridin-2-yl)-[1,2,4]triazolo[4,3-a]pyridine-6-carboxamide], the IC50 on human SCD5 (setting [1]) was determined as 40 nM; on human SCD1 (setting [2]) it was 310 nM.

As for `O=C(Nc1ccc(Cc2ccc(F)c(Cl)c2)cn1)c1ccc2nncn2c1` [Compound 148, N-(5-(3-chloro-4-fluorobenzyl)pyridin-2-yl)-[1,2,4]triazolo[4,3-a]pyridine-6-carboxamide], the 50% inhibitory concentration (IC50) at human SCD5 (setting [1]) and at human SCD1 (setting [2]) was 10 nM throughout.

`O=C(Nc1ccc(Cc2cc(F)cc(F)c2)cn1)c1ccc2nncn2c1` [Compound 149, N-(5-(3,5-difluorobenzyl)pyridin-2-yl)-[1,2,4]triazolo[4,3-a]pyridine-6-carboxamide]: the results for the half-maximal inhibitory concentration (IC50) at human SCD5 (setting [1]) and on human SCD1 (setting [2]) were 10 nM and 230 nM, respectively.

On to `O=C(Nc1ccc2nncn2c1)c1ccc(Cc2cccc(Cl)c2)cn1` [Compound 150, N-([1,2,4]triazolo[4,3-a]pyridin-6-yl)-5-(3-chlorobenzyl)picolinamide trifluoroacetic Acid], for which the concentration for half-maximal inhibition (IC50) is 10 nM at human SCD5 (setting [1]) and 20 nM on human SCD1 (setting [2]).
